Some targets named below: Mu-type opioid receptor (Homo sapiens, UniProt P35372); Histamine H3 receptor (Homo sapiens, UniProt Q9Y5N1); D(3) dopamine receptor (Homo sapiens, UniProt P35462).
Assay [1] has as its target Voltage-gated inwardly rectifying potassium channel KCNH2 (Homo sapiens, UniProt Q12809). The assay is classed as functional. As to conditions: read-out: AC50.
For assay [2], the target named is T1, Alpha-1A adrenergic receptor (Homo sapiens, UniProt P35348).
T1 sequence (P35348 whole entry): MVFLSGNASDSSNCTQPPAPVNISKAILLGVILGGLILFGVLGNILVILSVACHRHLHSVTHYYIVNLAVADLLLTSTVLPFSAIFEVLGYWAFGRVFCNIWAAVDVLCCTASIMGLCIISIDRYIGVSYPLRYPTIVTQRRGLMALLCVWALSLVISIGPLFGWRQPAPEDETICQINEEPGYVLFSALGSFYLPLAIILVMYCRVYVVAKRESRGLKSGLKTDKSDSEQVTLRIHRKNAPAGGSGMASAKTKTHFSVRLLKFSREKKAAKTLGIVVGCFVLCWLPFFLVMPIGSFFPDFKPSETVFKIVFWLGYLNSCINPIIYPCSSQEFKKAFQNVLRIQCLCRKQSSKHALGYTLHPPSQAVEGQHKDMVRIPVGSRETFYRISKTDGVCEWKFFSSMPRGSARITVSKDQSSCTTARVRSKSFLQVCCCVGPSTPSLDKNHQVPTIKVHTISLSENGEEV
The assay is classed as functional, cell-based.

The target in assay [3] is T2, Muscarinic acetylcholine receptor M2 (Homo sapiens, UniProt P08172).
T2 sequence (P08172 whole entry): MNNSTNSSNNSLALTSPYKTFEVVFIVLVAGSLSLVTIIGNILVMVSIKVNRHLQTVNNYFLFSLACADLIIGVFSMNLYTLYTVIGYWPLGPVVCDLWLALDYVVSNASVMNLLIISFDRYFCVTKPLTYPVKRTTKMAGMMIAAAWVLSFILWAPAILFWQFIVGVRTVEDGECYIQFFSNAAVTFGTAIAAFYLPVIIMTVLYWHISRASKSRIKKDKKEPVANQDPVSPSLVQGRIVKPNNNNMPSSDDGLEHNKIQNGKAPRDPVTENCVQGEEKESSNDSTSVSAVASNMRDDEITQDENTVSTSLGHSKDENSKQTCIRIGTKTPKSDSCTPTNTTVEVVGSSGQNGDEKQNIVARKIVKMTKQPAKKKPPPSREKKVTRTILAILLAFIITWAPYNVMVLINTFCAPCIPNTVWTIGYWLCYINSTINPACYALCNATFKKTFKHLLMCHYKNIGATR

Assay [4] has as its target 3',5'-cyclic-AMP phosphodiesterase 4A (Homo sapiens, UniProt P27815). The assay is classed as functional.
A further assay deals with T3, Estrogen receptor (Homo sapiens, UniProt P03372).
T3 sequence (P03372 whole entry): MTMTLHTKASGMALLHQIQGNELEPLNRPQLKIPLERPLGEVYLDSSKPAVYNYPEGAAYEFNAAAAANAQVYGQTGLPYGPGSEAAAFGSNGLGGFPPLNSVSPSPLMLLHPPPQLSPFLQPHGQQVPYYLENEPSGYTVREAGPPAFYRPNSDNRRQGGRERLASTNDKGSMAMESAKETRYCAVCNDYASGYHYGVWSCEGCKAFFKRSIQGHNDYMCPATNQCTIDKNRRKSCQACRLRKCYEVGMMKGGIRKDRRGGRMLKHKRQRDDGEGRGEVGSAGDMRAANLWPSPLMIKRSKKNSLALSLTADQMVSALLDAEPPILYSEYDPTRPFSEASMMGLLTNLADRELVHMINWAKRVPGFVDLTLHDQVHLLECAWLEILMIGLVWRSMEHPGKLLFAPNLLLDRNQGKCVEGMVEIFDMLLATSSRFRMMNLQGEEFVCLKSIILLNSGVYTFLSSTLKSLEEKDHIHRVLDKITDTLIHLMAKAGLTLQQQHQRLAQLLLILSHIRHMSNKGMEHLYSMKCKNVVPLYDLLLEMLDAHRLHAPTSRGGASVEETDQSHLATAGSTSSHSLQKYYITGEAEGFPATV

Assay [5] concerns the target T1, Alpha-1A adrenergic receptor. The assay is classed as functional, cell-based. The source holds these as a separate data set.
The target in assay [6] is T4, Alpha-2A adrenergic receptor (Homo sapiens, UniProt P08913).
T4 sequence (P08913 whole entry): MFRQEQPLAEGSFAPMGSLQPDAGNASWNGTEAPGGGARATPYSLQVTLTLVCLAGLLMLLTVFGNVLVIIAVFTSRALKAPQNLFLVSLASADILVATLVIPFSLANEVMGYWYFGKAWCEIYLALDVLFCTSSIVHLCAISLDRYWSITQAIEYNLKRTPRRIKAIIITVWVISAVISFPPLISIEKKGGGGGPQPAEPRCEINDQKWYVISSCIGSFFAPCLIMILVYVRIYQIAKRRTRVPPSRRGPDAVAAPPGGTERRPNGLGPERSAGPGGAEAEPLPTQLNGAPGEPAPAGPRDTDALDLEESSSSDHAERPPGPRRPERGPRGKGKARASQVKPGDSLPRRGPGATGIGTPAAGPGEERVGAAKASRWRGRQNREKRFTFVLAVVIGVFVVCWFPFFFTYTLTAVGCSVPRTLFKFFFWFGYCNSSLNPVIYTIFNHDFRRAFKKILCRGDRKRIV

Assay [7] has as its target Sodium-dependent serotonin transporter (Homo sapiens, UniProt P31645).
Also: assay procedure not described here.

Mu-type opioid receptor, sequence (P35372 whole entry): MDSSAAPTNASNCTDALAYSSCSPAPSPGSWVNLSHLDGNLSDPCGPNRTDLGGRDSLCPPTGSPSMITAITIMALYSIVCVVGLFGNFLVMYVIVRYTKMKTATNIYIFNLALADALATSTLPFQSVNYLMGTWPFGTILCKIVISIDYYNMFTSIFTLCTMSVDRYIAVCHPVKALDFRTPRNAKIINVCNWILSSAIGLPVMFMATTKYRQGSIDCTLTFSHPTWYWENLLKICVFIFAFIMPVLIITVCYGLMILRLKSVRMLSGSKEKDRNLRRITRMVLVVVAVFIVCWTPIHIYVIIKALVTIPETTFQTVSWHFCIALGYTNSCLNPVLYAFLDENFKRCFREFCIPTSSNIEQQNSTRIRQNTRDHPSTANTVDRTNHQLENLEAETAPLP
Histamine H3 receptor, sequence (Q9Y5N1 whole entry): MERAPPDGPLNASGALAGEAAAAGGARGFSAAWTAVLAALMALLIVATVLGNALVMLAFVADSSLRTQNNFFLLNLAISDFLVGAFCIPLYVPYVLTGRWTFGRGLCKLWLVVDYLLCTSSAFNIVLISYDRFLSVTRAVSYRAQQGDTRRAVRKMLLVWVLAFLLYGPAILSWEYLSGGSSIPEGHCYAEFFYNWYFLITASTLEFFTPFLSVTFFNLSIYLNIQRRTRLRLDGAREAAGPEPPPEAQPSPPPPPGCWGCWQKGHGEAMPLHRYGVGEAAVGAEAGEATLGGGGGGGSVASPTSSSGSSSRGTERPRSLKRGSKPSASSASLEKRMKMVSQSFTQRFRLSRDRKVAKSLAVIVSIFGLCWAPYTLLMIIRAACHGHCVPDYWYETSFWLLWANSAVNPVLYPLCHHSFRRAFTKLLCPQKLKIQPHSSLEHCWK
3',5'-cyclic-AMP phosphodiesterase 4A, sequence (P27815 whole entry): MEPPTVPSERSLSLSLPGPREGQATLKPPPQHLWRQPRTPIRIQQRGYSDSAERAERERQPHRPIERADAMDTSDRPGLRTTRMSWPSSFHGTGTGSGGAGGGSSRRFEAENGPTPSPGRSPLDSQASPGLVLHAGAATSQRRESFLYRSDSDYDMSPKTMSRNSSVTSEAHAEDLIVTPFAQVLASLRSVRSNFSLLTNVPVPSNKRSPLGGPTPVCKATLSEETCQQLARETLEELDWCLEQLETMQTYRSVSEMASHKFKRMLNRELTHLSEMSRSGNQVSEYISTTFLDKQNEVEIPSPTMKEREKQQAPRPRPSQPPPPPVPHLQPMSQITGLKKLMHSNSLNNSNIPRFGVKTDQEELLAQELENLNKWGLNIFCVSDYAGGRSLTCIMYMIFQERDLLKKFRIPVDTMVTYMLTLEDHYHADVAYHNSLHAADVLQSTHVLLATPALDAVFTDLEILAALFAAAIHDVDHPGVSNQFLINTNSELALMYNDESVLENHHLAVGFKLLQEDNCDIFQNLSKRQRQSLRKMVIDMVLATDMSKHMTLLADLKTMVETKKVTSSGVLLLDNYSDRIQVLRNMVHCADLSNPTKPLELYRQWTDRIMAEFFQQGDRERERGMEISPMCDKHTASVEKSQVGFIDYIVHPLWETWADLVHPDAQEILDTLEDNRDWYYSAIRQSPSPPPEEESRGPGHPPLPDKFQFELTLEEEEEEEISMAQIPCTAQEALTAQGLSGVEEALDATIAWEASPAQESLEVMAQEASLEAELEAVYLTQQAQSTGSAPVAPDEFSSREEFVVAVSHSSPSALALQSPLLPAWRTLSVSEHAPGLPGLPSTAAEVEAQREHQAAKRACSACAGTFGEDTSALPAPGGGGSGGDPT
Voltage-gated inwardly rectifying potassium channel KCNH2, sequence (Q12809 whole entry): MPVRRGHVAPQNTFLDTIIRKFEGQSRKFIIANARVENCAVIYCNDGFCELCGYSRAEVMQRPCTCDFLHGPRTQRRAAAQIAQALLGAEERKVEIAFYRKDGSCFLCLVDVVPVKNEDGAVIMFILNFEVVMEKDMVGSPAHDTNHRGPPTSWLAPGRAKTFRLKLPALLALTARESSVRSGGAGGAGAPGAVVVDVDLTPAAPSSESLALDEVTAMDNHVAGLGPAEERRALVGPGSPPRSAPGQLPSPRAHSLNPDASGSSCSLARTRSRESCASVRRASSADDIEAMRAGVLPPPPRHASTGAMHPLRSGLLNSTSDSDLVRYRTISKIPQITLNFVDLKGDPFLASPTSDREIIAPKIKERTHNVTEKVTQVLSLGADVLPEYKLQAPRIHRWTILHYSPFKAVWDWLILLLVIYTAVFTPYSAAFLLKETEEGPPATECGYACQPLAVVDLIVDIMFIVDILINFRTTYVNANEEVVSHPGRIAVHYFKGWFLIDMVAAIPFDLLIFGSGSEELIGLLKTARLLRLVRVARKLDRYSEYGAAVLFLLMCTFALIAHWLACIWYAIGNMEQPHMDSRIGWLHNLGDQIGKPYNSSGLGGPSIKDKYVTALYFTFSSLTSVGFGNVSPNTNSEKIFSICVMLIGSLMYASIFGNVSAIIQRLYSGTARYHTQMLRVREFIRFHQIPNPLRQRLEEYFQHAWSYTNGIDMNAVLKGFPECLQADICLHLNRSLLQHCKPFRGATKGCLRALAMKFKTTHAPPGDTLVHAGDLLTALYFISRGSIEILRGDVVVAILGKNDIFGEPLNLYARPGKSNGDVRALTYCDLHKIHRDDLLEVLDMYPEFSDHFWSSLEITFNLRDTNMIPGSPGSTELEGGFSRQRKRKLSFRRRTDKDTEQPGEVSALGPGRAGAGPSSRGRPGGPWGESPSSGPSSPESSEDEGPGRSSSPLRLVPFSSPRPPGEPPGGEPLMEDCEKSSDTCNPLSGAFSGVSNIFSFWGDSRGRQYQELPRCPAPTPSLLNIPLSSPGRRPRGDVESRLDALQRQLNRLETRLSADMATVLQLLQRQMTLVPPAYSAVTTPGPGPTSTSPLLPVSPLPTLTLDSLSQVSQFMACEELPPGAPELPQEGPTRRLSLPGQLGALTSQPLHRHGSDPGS
D(3) dopamine receptor, sequence (P35462 whole entry): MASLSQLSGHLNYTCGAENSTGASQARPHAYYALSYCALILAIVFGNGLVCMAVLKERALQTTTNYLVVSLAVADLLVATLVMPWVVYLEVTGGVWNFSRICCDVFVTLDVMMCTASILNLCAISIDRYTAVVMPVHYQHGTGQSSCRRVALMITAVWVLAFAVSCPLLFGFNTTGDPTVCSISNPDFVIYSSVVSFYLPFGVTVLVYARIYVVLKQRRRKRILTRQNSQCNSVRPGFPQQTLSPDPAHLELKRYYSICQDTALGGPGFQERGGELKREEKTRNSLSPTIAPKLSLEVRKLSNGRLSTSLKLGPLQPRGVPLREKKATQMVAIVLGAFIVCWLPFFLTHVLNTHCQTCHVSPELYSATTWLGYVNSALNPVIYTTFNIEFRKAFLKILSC
Sodium-dependent serotonin transporter, sequence (P31645 whole entry): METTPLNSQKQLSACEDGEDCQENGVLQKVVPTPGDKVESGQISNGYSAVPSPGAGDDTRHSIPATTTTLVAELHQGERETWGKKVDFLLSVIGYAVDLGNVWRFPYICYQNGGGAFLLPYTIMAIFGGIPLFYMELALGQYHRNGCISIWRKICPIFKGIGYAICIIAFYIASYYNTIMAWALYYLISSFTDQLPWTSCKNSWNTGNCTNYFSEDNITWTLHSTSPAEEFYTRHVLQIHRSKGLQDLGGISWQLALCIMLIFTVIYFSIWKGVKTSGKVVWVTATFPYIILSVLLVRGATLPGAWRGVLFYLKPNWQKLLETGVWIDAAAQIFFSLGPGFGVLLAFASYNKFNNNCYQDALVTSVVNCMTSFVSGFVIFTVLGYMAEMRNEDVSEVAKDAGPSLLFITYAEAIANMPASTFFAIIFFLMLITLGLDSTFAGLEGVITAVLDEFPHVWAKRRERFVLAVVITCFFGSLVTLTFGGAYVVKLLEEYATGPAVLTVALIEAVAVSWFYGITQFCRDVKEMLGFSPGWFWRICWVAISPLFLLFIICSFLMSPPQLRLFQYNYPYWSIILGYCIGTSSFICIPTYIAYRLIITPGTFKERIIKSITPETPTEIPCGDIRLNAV

For the compound `Cc1ccc2c([nH]c(=O)c3c(=O)cc(C(=O)OCCC(C)C)oc32)c1C`, the AC50 was 23 µM in [1]; over 30 µM in assay [2]; 11.8 µM in assay [3]; over 30 µM at Mu-type opioid receptor; over 30 µM in [4]; over 30 µM on Estrogen receptor. Also, the AC50 (in [5]; in assay [6]; in assay [7]; at Histamine H3 receptor; on D(3) dopamine receptor) was over 30 µM each time.
Take `COC(=O)N[C@H](C(=O)N1CC2(CC2)C[C@H]1c1ncc(-c2ccc3c(c2)C(F)(F)c2cc(-c4ccc5nc([C@@H]6[C@H]7CC[C@H](C7)N6C(=O)[C@@H](NC(=O)OC)C(C)C)[nH]c5c4)ccc2-3)[nH]1)C(C)C`: the AC50 (in assay [1]; in assay [2]; in assay [3]; at Mu-type opioid receptor; in [4]; at Estrogen receptor) was over 30 µM in each case. Besides, the AC50 in [5] was over 30 µM; in [6], over 30 µM; in [7], over 30 µM; on Histamine H3 receptor, over 30 µM; at D(3) dopamine receptor, over 10 µM.
Take `Cc1cnc(C(=O)O)c[n+]1[O-]` [ACIPIMOX]: the AC50 (in assay [1]; in [2]; in assay [3]; on Mu-type opioid receptor; in [4]; at Estrogen receptor) was over 30 µM throughout. Besides, the AC50 (in assay [5]; in assay [6]; in assay [7]; at Histamine H3 receptor; on D(3) dopamine receptor) was over 30 µM in each case.
As to `Nc1ccc(C(=O)NCC(=O)O)cc1` [AMINOHIPPURIC ACID], the AC50 (in assay [1]; in assay [2]; in [3]; at Mu-type opioid receptor; in [4]; on Estrogen receptor) was over 30 µM each time. For the same compound, the AC50 (in assay [5]; in assay [6]; in [7]; at Histamine H3 receptor; at D(3) dopamine receptor) was over 30 µM throughout.
As to `O=C(OOC(=O)c1ccccc1)c1ccccc1` [BENZOYL PEROXIDE], the AC50 (in [1]; in [2]; in assay [3]; at Mu-type opioid receptor; in [4]; on Estrogen receptor) was over 30 µM throughout. Moreover, the AC50 (in [5]; in assay [6]; in assay [7]; at Histamine H3 receptor; at D(3) dopamine receptor) was over 30 µM throughout.
In the case of `CC(C)(C)NCC(O)COc1ccccc1C#N` (centres undefined) [BUNITROLOL], the AC50 (in [1]; in [2]; in [3]; at Mu-type opioid receptor; in assay [4]; on Estrogen receptor) was over 30 µM throughout. In addition, the AC50 in [5] was over 30 µM; in [6], 27.1 µM; in assay [7] it was over 30 µM; at Histamine H3 receptor it was over 30 µM; at D(3) dopamine receptor it was over 30 µM.
With `CCCCC(=O)O[C@H]1CC[C@H]2[C@@H]3CCc4cc(O)ccc4[C@H]3CC[C@]12C` [ESTRADIOL VALERATE], the AC50 is over 30 µM in assay [1]; over 30 µM in assay [2]; over 30 µM in [3]; over 30 µM at Mu-type opioid receptor; over 10 µM in assay [4]; 0.0822 µM at Estrogen receptor. Besides, the AC50 (in [5]; in [6]; in assay [7]; on Histamine H3 receptor; on D(3) dopamine receptor) was over 30 µM each time.
As to `CCOc1ccc(Cc2nccc3cc(OCC)c(OCC)cc23)cc1OCC` [ETHAVERINE], the AC50 in assay [1] is 13 µM; in assay [2], 9.55 µM; in assay [3], over 30 µM; on Mu-type opioid receptor, over 30 µM; in [4], 0.466 µM; on Estrogen receptor, over 30 µM. Moreover, the AC50 in assay [5] was over 30 µM; in assay [6], 20.9 µM; in assay [7] it was over 30 µM; on Histamine H3 receptor, over 30 µM; on D(3) dopamine receptor it was 25.5 µM.
`CC(C)(Oc1ccc(C(=O)c2ccc(Cl)cc2)cc1)C(=O)O` [FENOFIBRIC ACID]: the concentration at half-maximal activity (AC50) was over 30 µM in assay [1]; over 30 µM in assay [2]; over 30 µM in [3]; over 30 µM on Mu-type opioid receptor; over 3 µM in [4]; over 30 µM at Estrogen receptor. For the same compound, the AC50 (in [5]; in assay [6]; in [7]; at Histamine H3 receptor; at D(3) dopamine receptor) was over 30 µM throughout.
Consider `COCC(=O)O[C@]1(CCN(C)CCCc2nc3ccccc3[nH]2)CCc2cc(F)ccc2[C@@H]1C(C)C` [MIBEFRADIL], for which the concentration at half-maximal activity (AC50) is 1.58 µM in assay [2]; 3.85 µM in assay [3]; 0.979 µM on Mu-type opioid receptor; over 30 µM in [4]; over 30 µM at Estrogen receptor; 25.9 µM in assay [5]. Besides, the AC50 in assay [6] was 23.4 µM; in assay [7] it was 22.8 µM; at Histamine H3 receptor, over 30 µM; at D(3) dopamine receptor, 0.825 µM.
For the compound `CNC(=O)c1cnn(-c2nc(N)c3ncn([C@@H]4O[C@H](CO)[C@@H](O)[C@H]4O)c3n2)c1` [REGADENOSON ANHYDROUS], the AC50 in [2] is over 30 µM; in assay [3], over 30 µM; on Mu-type opioid receptor, over 30 µM; in assay [4] it was over 30 µM; at Estrogen receptor, over 30 µM; in assay [5], 28.2 µM. The AC50 (in assay [6]; in assay [7]; at Histamine H3 receptor; at D(3) dopamine receptor) was over 30 µM in each case.
As for `CC(=O)O[C@]1(C(C)=O)CC[C@H]2[C@@H]3CCC4=CC(=O)CCC4=C3[C@@H](c3ccc(N(C)C)cc3)C[C@@]21C` [ULIPRISTAL ACETATE], the concentration at half-maximal activity (AC50) in assay [2] was over 30 µM; in assay [3], over 30 µM; at Mu-type opioid receptor it was 22.5 µM; in [4] it was over 30 µM; on Estrogen receptor, 9.29 µM; in assay [5], over 30 µM. Besides, the AC50 (in assay [6]; in assay [7]; on Histamine H3 receptor; on D(3) dopamine receptor) was over 30 µM in each case.

For orientation: AC50 means the midpoint of the concentration-response curve, whichever way the signal moves.

For the origin of these results see ChEMBL document CHEMBL5291721, “A preclinical secondary pharmacology resource illuminates target-adverse drug reaction associations of marketed drugs” (Nat Commun, 2023).
